# “Also recorded” adds a separate entry of the source.
# Experiments:
# [1] = test system: THP-1 cells; test: CCR2, FABP4, IL8 and PPARγ gene expression in PMA treated THP-1 cells (qRT-PCR); type: cell-based, human; conditions: 200 ng/ml PMA, 300 μM BN or BN NP, 24 hours
# Protocol: (§1) THP-1 (human leukemia monocyte cell line) cells were obtained from American Type Culture Collection (ATCC, Manassas, VA). THP-1 cells (200,000/well) were placed in six-well plates. After overnight incubation in serum free RPMI medium, cells were treated with 200 ng/ml of phorbol 12-myristate 13-acetate (PMA, Sigma-Aldrich, St. Louis, MO) to induce monocyte differentiation into macrophages. […] Cells were collected and RNA was isolated using miRNeasy kit (Qiagen).
# (§2) PCR primers were purchased from Integrated DNA technologies (ITD, San Diego, USA). The miRNeasy Kit was used to isolate RNA (Qiagen, Germantown, MD, USA) according to the manufacturer's instructions. The iscript c-DNA synthesis kit (Bio-Rad, Hercules, CA, USA) was used to synthesize cDNA, and real-time qRT-PCR was done with the iTaq universal SYBR green super mix (Bio-Rad) using a C1000 thermal cycler with CFX96 real-time system (Bio-Rad). TBP-1 was used as a reference gene, and gene expression data was normalized to the respective control veins. The 2^−ΔΔct method was used to measure the fold change in gene expression.
# [2] = test system: Mcp-1; test: Mcp-1 gene expression in PMA treated THP-1 cells (qRT-PCR); type: cell-based, human
# Protocol: as §1, §2
smiles,measurement,setting,value
"CCCCCCCCCCCCCC(=O)O[C@@H]1[C@@H](C)[C@@]2(O)[C@@H](C=C(CO)C[C@]3(O)C(=O)C(C)=C[C@@H]23)[C@@H]2C(C)(C)[C@]12OC(C)=O [PMA, phorbol 12-myristate 13-acetate]",CCR2 gene expression,[1],significantly increased; also recorded: induced
same,FABP4 gene expression,[1],significantly increased; also recorded: induced
same,IL8 gene expression,[1],significantly increased; also recorded: induced
same,PPARγ gene expression,[1],significantly increased; also recorded: induced
same,average Mcp-1 gene expression,"[2]; 200 ng/ml PMA with or without 300 μM BN or BN NP, 24 hours, fold change",9.77±1.58
same,average increase of Mcp-1 gene expression,[2]; PMA compared to NP C alone,859.13%
